Assays:
[1] = Circular dichroism secondary structure; type: physicochemical; conditions: CD, 100 µM, 190-240 nm, five scans averaged, Provencher & Glockner Method
Protocol: Circular dichroism (CD) spectroscopy was carried out using a Jasco J-815 spectropolarimeter (Easton, MD, USA). PAM solutions (100 µM) were analyzed in 0.2 mm path-length cuvettes. Measurements were made at 0.5 nm intervals from 190 nm to 240 nm with 1 s intervals and 1 nm bandwidth. Data from five scans were averaged to create the CD spectra, and the secondary structures were quantified using the Provencher & Glockner Method.

[2] = tested on: murine monocytes; assay: Chemotaxis assay (transwell, migrated monocyte DNA); type: cell-based; conditions: 4 h, 8 µm pore transwell, Pico Green, n = 4
Protocol: To determine the chemoattractant properties of PAMs, 50,000 monocytes in 20 µL were suspended on a 24-well transwell plate with 8 µm pores. After 4 h, the number of cells that migrated to the bottom well containing 1 µM, 10 µM, 100 µM, 1000 µM PAMs, peptides, or PBS was quantified by lysing the cells via sonication, and measuring DNA using Quant-it Pico Green (Invitrogen, Carlsbad, CA, USA).

Secondary Structure, Alpha Helix [1]	Secondary Structure, Beta Sheet [1]	Secondary Structure, Random Coil [1]	Sequence	Amount of migrated monocyte DNA at 1000 µM [2]
9.2%	36.2%	54.5%	YNFTNRKISVQRLASYRRITSSK [MCP-1 Peptide, MCP-1 peptide (residues 13–35) modified with a cysteine at the N-terminus]	78.98 ± 0.8 ng/mL
8.6%	43.9%	47.5%	YNSLVFRIRNSTQRKYRASIST [Scrambled MCP-1 Peptide, scrambled version of the MCP-1 peptide designed to mimic its secondary structure]	–
